One may read the AUC as the area under the concentration-time curve, a measure of exposure. High values mean high exposure, low ones low exposure.

The nature of data set [1]: Serum levels PO in squirrel monkeys (AUCs, 0-6h.), cylinder cup method. Format: in vivo. The conditions noted are these: for AUC at 6 h: monkey, po. How it is done: The serum levels of the compounds of this invention were determined in male mice (Carworth CF-1) weighing 18-20 g. each, and squirrel monkeys weighing ca. 1 kg. each. Groups of six mice were given aqueous solutions of the drugs intravenously as single bolus doses of 100 mg./kg., and groups of six monkeys were given the drugs orally as a single dose of 20, or 50 mg./kg. After 1, 3, 5, 10, 20, 30, 45, 60, 90, 120 and 180 min., mice were killed by cutting the jugular vein and the blood allowed to drain into 8 mm. (diameter) tubes which had been standing in a ice water bath. At each time point, blood from the group of mice was pooled. For monkeys, blood samples were taken after 15, 30, 45, 60, 90, 120, 180, 240 and 360 minutes and were not pooled. The samples were left to clot at room temperature for 15 min. After clotting, the samples were centrifuged for 10 min. […] Stock solutions of each antibacterial were prepared daily in the appropriate vehicle and diluted in homologous serum to prepare a standard curve. Serum samples, diluted where necessary in the appropriate serum, were compared to a standard curve of known potency by standard assay procedures. All assays were done at least twice.
(§1) AUCs (areas under the curves) were obtained from serum level vs. time data by the trapezoidal rule.

A short description of data set [2]: Serum levels IV in mice (AUCs, 0-3h.), cylinder cup method. The conditions noted are these: for AUC at 3 h: mouse, in vivo, intravenous single bolus 100 mg./kg.; for AUC at 3 h / serum levels compared with erythromycin, rosaramicin, tylosin, 3-O-acetyl-4"-O-iso-valeryltylosin, 3-O-acetyl-23-O-demycinosyl-4"-O-iso-valeryltylosin, intravenously to mice: 10 mg./ml. in vehicle; for serum levels compared with erythromycin, rosaramicin, tylosin, 3-O-acetyl-4"-O-iso-valeryltylosin, 3-O-acetyl-23-O-demycinosyl-4"-O-iso-valeryltylosin, intravenously to mice: 100 mg./kg. Format: in vivo, male mice (Carworth CF-1). How it is done:
The serum levels of the compounds of this invention were determined in male mice (Carworth CF-1) weighing 18-20 g. each, and squirrel monkeys weighing ca. 1 kg. each. Groups of six mice were given aqueous solutions of the drugs intravenously as single bolus doses of 100 mg./kg., and groups of six monkeys were given the drugs orally as a single dose of 20, or 50 mg./kg. After 1, 3, 5, 10, 20, 30, 45, 60, 90, 120 and 180 min., mice were killed by cutting the jugular vein and the blood allowed to drain into 8 mm. (diameter) tubes which had been standing in a ice water bath. At each time point, blood from the group of mice was pooled. For monkeys, blood samples were taken after 15, 30, 45, 60, 90, 120, 180, 240 and 360 minutes and were not pooled. The samples were left to clot at room temperature for 15 min. After clotting, the samples were centrifuged for 10 min. Serum was removed and put into another test tube in an ice water bath, until antibiotic levels were determined by a cylinder cup method, with either Bacillus subtilis ATCC 6633, or Micrococcus luteus ATCC 9431 as the test organisms. Stock solutions of each antibacterial were prepared daily in the appropriate vehicle and diluted in homologous serum to prepare a standard curve. Serum samples, diluted where necessary in the appropriate serum, were compared to a standard curve of known potency by standard assay procedures. All assays were done at least twice.
as §1

The conditions of data set [3]: cited from earlier work.
Setting [4] is: in vivo, 20 mg/kg, oral single dose 20 mg./kg., 20 mg./ml. in PEG 40 castor oil/lactic acid vehicle.
Where [5] appears, read: serum, 20 mg/kg, oral single dose 20 mg./kg., 20 mg./ml. in PEG 40 castor oil/lactic acid vehicle.
The mark [6] stands for this setting: serum, 20 mg/kg, oral single dose 20 mg./kg., 3.5 mg./ml. in vehicle, crossover experiment.

`CC[C@H]1OC(=O)[C@H](C)[C@@H](O[C@H]2C[C@@](C)(OC)[C@@H](O)[C@H](C)O2)[C@H](C)[C@@H](O[C@@H]2O[C@H](C)C[C@H](N(C)C)[C@H]2O)[C@](C)(O)C[C@@H](C)C(=O)[C@H](C)[C@@H](O)[C@]1(C)O` [I, Erythromycin, reference compound]: the AUC at 6 h in data set [1] (in vivo, 20 mg/kg, oral single dose 20 mg./kg., 3.5 mg./ml. in vehicle) came out at 1500 ng·h/mL; in data set [1] (in vivo, 20 mg/kg, oral single dose 20 mg./kg., 10 mg./ml. in vehicle), 4800 ng·h/mL; in data set [1] (setting [4]) it was 4900 ng·h/mL. Further, the AUC at 3 h in data set [2] turned out to be 36100 ng·h/mL.
Consider `CC[C@H]1OC(=O)C[C@@H](O)[C@H](C)[C@@H](O[C@@H]2O[C@H](C)C[C@H](N(C)C)[C@H]2O)[C@@H](CC=O)C[C@@H](C)C(=O)/C=C/[C@]2(C)O[C@H]2[C@@H]1C` [II, Rosaramicin, reference compound], for which the AUC at 6 h in data set [1] (setting [5]) turned out to be 2200 ng·h/mL; in data set [1] (serum, 50 mg/kg, oral single dose 50 mg./kg., 50 mg./ml. in vehicle), 6600 ng·h/mL.
Take `CC[C@H]1OC(=O)C[C@@H](O)[C@H](C)[C@@H](O[C@@H]2O[C@H](C)[C@@H](O[C@H]3C[C@@](C)(O)[C@@H](O)[C@H](C)O3)[C@H](N(C)C)[C@H]2O)[C@@H](CC=O)C[C@@H](C)C(=O)/C=C/C(C)=C/[C@@H]1CO[C@@H]1O[C@H](C)[C@@H](O)[C@@H](OC)[C@H]1OC` [III, Tylosin]: the AUC at 6 h in data set [1] (setting [4]) turned out to be 2600 ng·h/mL; in data set [1] (in vivo, 50 mg/kg, oral single dose 50 mg./kg., 50 mg./ml. in vehicle) it was 15600 ng·h/mL. Also, the “stability in acidic and basic solution” value in data set [3] is “readily transformed in acidic and basic solution into aldol condensation and Michael addition products”. Further, the AUC at 3 h in data set [2] was determined as 24200 ng·h/mL.
As for `CC[C@H]1OC(=O)C[C@@H](OC(C)=O)[C@H](C)[C@@H](O[C@@H]2O[C@H](C)[C@@H](O[C@H]3C[C@@](C)(O)[C@@H](OC(=O)CC(C)C)[C@H](C)O3)[C@H](N(C)C)[C@H]2O)[C@@H](CC=O)C[C@@H](C)C(=O)/C=C/C(C)=C/[C@@H]1CO[C@@H]1O[C@H](C)[C@@H](O)[C@@H](OC)[C@H]1OC` [IV, 3-O-Acetyl-4"-O-iso-valeryltylosin, reference compound], the AUC at 6 h in data set [1] (setting [6]) was 7600 ng·h/mL; in data set [1] (setting [5]), 15800 ng·h/mL. Besides, the AUC at 3 h in data set [2] amounted to 52400 ng·h/mL.
Consider `CC[C@H]1OC(=O)C[C@@H](OC(C)=O)[C@H](C)[C@@H](O[C@@H]2O[C@H](C)[C@@H](O[C@H]3C[C@@](C)(O)[C@@H](OC(=O)CC(C)C)[C@H](C)O3)[C@H](N(C)C)[C@H]2O)[C@@H](CC=NN2CCS(=O)(=O)CC2)C[C@@H](C)C(=O)/C=C/C(C)=C/[C@@H]1CO` [IX, 3-O-Acetyl-23-O-demycinosyl-20-deoxo-20-[(4,4-dioxothiomorpholinyl)imino]-4"-O-iso-valeryltylosin], for which the AUC at 6 h in data set [1] (setting [5]) was 2500 ng·h/mL. The compound also registered an AUC at 3 h in data set [2] of 40100 ng·h/mL.
`CC[C@H]1OC(=O)C[C@@H](OC(C)=O)[C@H](C)[C@@H](O[C@@H]2O[C@H](C)[C@@H](O[C@H]3C[C@@](C)(O)[C@@H](OC(=O)CC(C)C)[C@H](C)O3)[C@H](N(C)C)[C@H]2O)[C@@H](CC=O)C[C@@H](C)C(=O)/C=C/C(C)=C/[C@@H]1CO` [V, 3-O-Acetyl-23-O-demycinosyl-4"-O-isovaleryltylosin, reference compound] displayed an AUC at 6 h in data set [1] (setting [5]) of 5500 ng·h/mL. The AUC at 3 h in data set [2] was determined as 28300 ng·h/mL.
Regarding `CC[C@H]1OC(=O)C[C@@H](OC(C)=O)[C@H](C)[C@@H](O[C@@H]2O[C@H](C)[C@@H](O[C@H]3C[C@@](C)(O)[C@@H](OC(=O)CC(C)C)[C@H](C)O3)[C@H](N(C)C)[C@H]2OC(C)=O)[C@@H](CC=O)C[C@@H](C)C(=O)/C=C/C(C)=C/[C@@H]1CO` [VI, 3,2'-Di-O-acetyl-23-O-demycinosyl-4"-O-iso-valeryltylosin], the “serum levels compared with 3-O-acetyl-4"-O-iso-valeryltylosin, orally to squirrel monkeys” value in data set [1] (20 mg./kg., 20 mg./ml. in vehicle) is “slightly lower serum levels”; in data set [1] (oral, dose not given), “slightly lower serum levels”. The same compound gave an area under the curve (AUC) at 6 h in data set [1] (setting [5]) of 10400 ng·h/mL.
Consider `CC[C@H]1OC(=O)C[C@@H](OC(C)=O)[C@H](C)[C@@H](O[C@@H]2O[C@H](C)[C@@H](O[C@H]3C[C@@](C)(O)[C@@H](OC(=O)CC(C)C)[C@H](C)O3)[C@H](N(C)C)[C@H]2OC(C)=O)[C@@H](CC=O)C[C@@H](C)C(=O)/C=C/C(C)=C/[C@@H]1COC(C)=O` [VII, 3,23,2'-Tri-O-acetyl-23-O-demycinosyl-4"-O-iso-valeryltylosin], for which, in data set [1] (20 mg./kg., 3.5 mg./ml. in vehicle), the “serum levels compared with 3-O-acetyl-4"-O-iso-valeryltylosin, orally to squirrel monkeys” value was “superior serum levels”. Besides, the AUC at 6 h in data set [1] (setting [6]) was 13500 ng·h/mL. Moreover, the “serum levels compared with 3-O-acetyl-4"-O-iso-valeryltylosin, orally to squirrel monkeys” value in data set [1] (oral, dose not given) is “superior serum levels”. In data set [2], the “serum levels compared with erythromycin, rosaramicin, tylosin, 3-O-acetyl-4"-O-iso-valeryltylosin, 3-O-acetyl-23-O-demycinosyl-4"-O-iso-valeryltylosin, intravenously to mice” value is “serum levels that are superior” and the area under the curve (AUC) at 3 h is 69400 ng·h/mL. Moreover, the “serum levels compared with erythromycin, rosaramicin, tylosin, 3-O-acetyl-23-O-demycinosyl-4"-O-iso-valeryltylosin, 3-O-acetyl-4"-O-iso-valeryltylosin, intravenously to mice” value in data set [2] (intravenous, dose not given) is on record as “higher serum levels”.
For the compound `CC[C@H]1OC(=O)C[C@@H](OC(C)=O)[C@H](C)[C@@H](O[C@@H]2O[C@H](C)[C@@H](O[C@H]3C[C@@](C)(O)[C@@H](OC(=O)CC(C)C)[C@H](C)O3)[C@H](N(C)C)[C@H]2O)[C@@H](CC=NN2CCS(=O)(=O)CC2)C[C@@H](C)C(=O)/C=C/C(C)=C/[C@@H]1CO[C@@H]1O[C@H](C)[C@@H](O)[C@@H](OC)[C@H]1OC` [VIII, 3-O-Acetyl-20-deoxo-20-[(4,4-dioxothiomorpholinyl)imino]-4"-O-iso-valeryltylosin], in data set [1] (setting [5]), the AUC at 6 h is 7500 ng·h/mL. The AUC at 3 h in data set [2] came out at 67600 ng·h/mL.
Taken in the same sequence, the figures for `CC[C@H]1OC(=O)C[C@@H](OC(C)=O)[C@H](C)[C@@H](O[C@@H]2O[C@H](C)[C@@H](O[C@H]3C[C@@](C)(O)[C@@H](OC(=O)CC(C)C)[C@H](C)O3)[C@H](N(C)C)[C@H]2OC(C)=O)[C@@H](CC=NN2CCS(=O)(=O)CC2)C[C@@H](C)C(=O)/C=C/C(C)=C/[C@@H]1CO` [X, 3,2'-Di-O-acetyl-23-O-demycinosyl-20deoxo-20-[(4,4-dioxothiomorpholinyl)imino]-4"-O-iso-valeryltylosin] were 4800 ng·h/mL and 80500 ng·h/mL.
The compound `CC[C@H]1OC(=O)C[C@@H](OC(C)=O)[C@H](C)[C@@H](O[C@@H]2O[C@H](C)[C@@H](O[C@H]3C[C@@](C)(O)[C@@H](OC(=O)CC(C)C)[C@H](C)O3)[C@H](N(C)C)[C@H]2O)[C@@H](CC=NN2CCS(=O)(=O)CC2)C[C@@H](C)C(=O)/C=C/C(C)=C/[C@@H]1COC(C)=O` [XI, 3,23-Di-O-acetyl-23-O-demycinosyl-20-deoxo-20-[(4,4-dioxothiomorpholinyl)imino]-4"-O-iso-valeryltylosin] returned an AUC at 6 h in data set [1] (setting [5]) of 4600 ng·h/mL. The same compound showed an AUC at 3 h in data set [2] of 61800 ng·h/mL.
Regarding `CC[C@H]1OC(=O)C[C@@H](OC(C)=O)[C@H](C)[C@@H](O[C@@H]2O[C@H](C)[C@@H](O[C@H]3C[C@@](C)(O)[C@@H](OC(=O)CC(C)C)[C@H](C)O3)[C@H](N(C)C)[C@H]2OC(C)=O)[C@@H](CC=NN2CCS(=O)(=O)CC2)C[C@@H](C)C(=O)/C=C/C(C)=C/[C@@H]1COC(C)=O` [XII, 3,23,2'-Tri-O-acetyl-23-O-demycinosyl-20-deoxo-20-[(4,4-dioxothiomorpholinyl)imino]-4"-O-iso-valeryltylosin], in data set [1] (serum, 20 mg/kg, oral single dose 20 mg./kg., 3.5 mg./ml. in vehicle), the AUC at 6 h is 3800 ng·h/mL. Further, in data set [2], the “serum levels compared with erythromycin, rosaramicin, tylosin, 3-O-acetyl-4"-O-iso-valeryltylosin, 3-O-acetyl-23-O-demycinosyl-4"-O-iso-valeryltylosin, intravenously to mice” value is recorded as “serum levels that are superior” and the AUC at 3 h was determined as 154000 ng·h/mL.
Compound `CC[C@H]1OC(=O)C[C@@H](OC(C)=O)[C@H](C)[C@@H](O[C@@H]2O[C@H](C)[C@@H](O[C@H]3C[C@@](C)(O)[C@@H](OC(=O)CC(C)C)[C@H](C)O3)[C@H](N(C)C)[C@H]2O)[C@@H](CC=NN2CCS(=O)(=O)CC2)C[C@@H](C)C(=O)/C=C/C(C)=C/[C@@H]1COC(=O)Cc1ccccc1` [XIII, 3-O-Acetyl-23-O-demycinosyl-20-deoxo-20-[(4,4-dioxothiomorpholinyl)imino]-23-O-phenylacetyl-4"-O-iso-valeryltylosin] came in with an area under the curve (AUC) at 3 h in data set [2] of 43400 ng·h/mL.
